# Data from patent US20060030537A1, “Ceramide kinase and uses thereof” (priority 2004, published 2006).
# How the values were obtained:
# Format in all cases: cell-based
# [1] = system: L929 fibroblasts; experiment: AA release in L929 fibroblasts
# Method: FIGS. 3A-3B. FIG. 3A. The effects of ceramide-1-phosphate on TXB2 synthesis. A549 cells (1×10^5) were treated with D-e-C16 ceramide-1-phosphate (1 μM) solubilized in 2% dodecane/98% ethanol (final concentration in treatments was 0.002% dodecane/0.098% ethanol (EtOH)) for the indicated times. The results are presented as % control of TXB2 controlled for equivalent number of cells by MTT assay. Data are representative of 3 separate determinations on 2 separate occasions. FIG. 3B. The effects of ceramide-1-phosphate on AA release and PGE2 synthesis in L929 fibroblasts. L929 cells (5×10^4) were labeled overnight with 5 μCi/mL [^3H]-arachidonic acid (5 nM). Cells were washed and placed in DMEM supplemented with 2% fetal bovine serum for two hours. […]
# Quantification of arachidonic acid (AA) release: A549 cells (5×10^4) were labeled overnight with 5 μCi/mL [^3H]-AA (5 nM) (NEN). […] Following treatment, media was transferred to 1.5 mL polypropylene tubes, centrifuged at 10,000×g, and ^3H-AA cpm determined by scintillation counting. Results were controlled for equivalent number of cells quantified by MTT assay as described (Chalfant, C. E., Rathman, K., Pinkerman, R. L., Wood, R. E., Obeid, L. M., Ogretmen, B., and Hannun, Y. A. (2002) J. Biol. Chem. 277, 12587-12595) and by verification of total AA labeling by scintillation counting. […]
# [2] = system: A549 cells; experiment: Quantification of prostaglandin E2 synthesis in A549 cells (EIA); settings: compared with inhibition of AA release
# Method: Cell Culture: A549 lung adenocarcinoma cells (epithelial-derived) were grown in low glucose DMEM (Invitrogen) supplemented with L-glutamine, 10% (v/v) fetal bovine serum (Invitrogen), 200 U/ml of penicillin G sodium, and 200 μg/ml of streptomycin sulfate. Cells were maintained under 80% confluency and standard incubator conditions (humidified atmosphere, 95% air, 5% CO2, 370 C). For treatment, cells were incubated for 2 hours in low glucose DMEM (Invitrogen) supplemented with L-glutamine, 2% (v/v) fetal bovine serum (Invitrogen), 200 U/ml of penicillin G sodium, and 200 μg/ml of streptomycin sulfate prior to the addition of agonist.
# Quantification of prostaglandin E2 and thromboxane B2 synthesis: For measurement of PGE2 and TXB2 levels, aliquots of media were taken at indicated time points and assayed according to manufacturer's instructions using the prostaglandin E2 and thromboxane B2 monoclonal EIA Kit from Cayman Chemical. Briefly, media containing PGE2 or TXB2 competes with PGE2 or TXB2 acetylcholinesterase conjugate for a limited amount of monoclonal antibody. The antibody-PGE2 or -TXB2 conjugate binds to a goat-anti-mouse antibody previously attached to the 96-well plate. The plate is washed to remove unbound reagents and then the substrate for acetylcholinesterase is provided. […] Results were controlled for equivalent number of cells quantified by MTT assay. […]
# [3] = system: sphingosine kinase-1; experiment: Immunoreactive levels of sphingosine kinase-1 after ceramide kinase RNAi; settings: cells transfected with RNAi targeted to ceramide kinase
substance,measurement,setting,value
"ceramide kinase RNAi: 21-nucleotide duplex, human ceramide kinase RNAi starting 142 nucleotides from start codon (SEQ ID NO: 3 and 4) (chain 1 UGCCUGCUCUGUGCCUGUATT; chain 2 UACAGGCACAGAGCAGGCATT; chemistry not given here)",inhibition of AA release in response to IL-1β,[1],over 60%
same,inhibition of PGE2 synthesis in response to IL-1β and A23187,[2],to the same extent
same,immunoreactive levels of sphingosine kinase-1,[3],no decrease
